What was measured:
barnyardgrass [1] = assay: Test B pre-/postemergence herbicide test; format: in vivo, Echinochloa crus-galli; conditions: for Barnyardgrass plant response rating: postemergence
How it was run: (§1)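 Evaluation is visual, comparing treated with control plants on a scale where 0 means no effect and 100 means full control. Treatments were preemergence, or postemergence on seedlings 2–18 cm tall, and held 13–15 days in the greenhouse.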

Surinam grass = assay: Test B pre-/postemergence herbicide test; format: in vivo, Urochloa decumbens; conditions: for Surinam Grass plant response rating: postemergence
How it was run: (§2)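 Flooded paddy rice and barnyardgrass were treated at the 2-leaf stage; upland plantings received compound either on sown seed or on 1- to 4-leaf seedlings. All were kept 13–15 days in a greenhouse and scored visually, 0–100, relative to untreated plants.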

cocklebur = assay: Test B pre-/postemergence herbicide test; format: in vivo, Xanthium strumarium; conditions: for Cocklebur plant response rating: postemergence
How it was run: as §1

corn = assay: Test B pre-/postemergence herbicide test; format: in vivo, Zea mays; conditions: for Corn plant response rating: postemergence
How it was run: as §2

large crabgrass = assay: Test B pre-/postemergence herbicide test; format: in vivo, Digitaria sanguinalis; conditions: for Crabgrass, Large plant response rating: postemergence
How it was run: as §2

giant foxtail = assay: Test B pre-/postemergence herbicide test; format: in vivo, Setaria faberi; conditions: for Foxtail, Giant plant response rating: postemergence
How it was run: as §2

lambsquarters = assay: Test B pre-/postemergence herbicide test; format: in vivo, Chenopodium album; conditions: for Lambsquarters plant response rating: postemergence
How it was run: as §2

morningglory = assay: Test B pre-/postemergence herbicide test; format: in vivo, Ipomoea coccinea; conditions: for Morningglory plant response rating: postemergence
How it was run: as §1

pigweed = assay: Test B pre-/postemergence herbicide test; format: in vivo, Amaranthus retroflexus; conditions: for Pigweed plant response rating: postemergence
How it was run: as §2

rice [2] = assay: Test B pre-/postemergence herbicide test; format: in vivo, Oryza sativa; conditions: 0 = no effect, 100 = complete control, preemergence
How it was run: as §1

velvetleaf = assay: Test B pre-/postemergence herbicide test; format: in vivo, Abutilon theophrasti; conditions: for Velvetleaf plant response rating: postemergence
How it was run: as §2

blackgrass = assay: Test B postemergence herbicide test; format: in vivo, Alopecurus myosuroides; conditions: postemergence
How it was run: (§3)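 Each value is a visual 0–100 response rating taken against controls 13 to 15 days after treatment in the greenhouse. Plants received formulated chemical postemergence at the 1- to 4-leaf stage or, in flooded paddy, at the 2-leaf stage.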

wheat = assay: Test B postemergence herbicide test; format: in vivo, Triticum aestivum; design: key to Wheat plant response rating: 0 = no effect, 100 = complete control; conditions: postemergence
How it was run: (§4)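 Greenhouse test; postemergence application to plants at 1–4 leaves (2–18 cm); paddy species at 2 leaves; evaluated visually vs controls at 13–15 days; scale 0–100 (100 = complete control).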

wild oat = assay: Test B postemergence herbicide test; format: in vivo, Avena fatua; conditions: postemergence
How it was run: as §4

rice [3] = assay: Test B flooded paddy test; format: in vivo, Oryza sativa; conditions: 1000 g ai/ha, scale 0 to 100 (0 no effect, 100 complete control)
How it was run: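 After treating 2-leaf paddy plants or 2–18 cm postemergence plants (1 to 4 leaves) with formulated chemical, researchers kept them in a greenhouse for 13–15 days. Effects were judged visually versus controls: 0 indicates none, 100 total control.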

[4] = test system: small flower umbrella sedge; assay: Test B flooded paddy test; format: in vivo, Cyperus difformis; conditions: 1000 g ai/ha, scale 0 to 100 (0 no effect, 100 complete control)
How it was run: as §3

ducksalad [5] = assay: Test B flooded paddy test; format: in vivo, Heteranthera limosa; conditions: 1000 g ai/ha, scale 0 to 100 (0 no effect, 100 complete control)
How it was run: as §3

barnyardgrass [6] = assay: Test B flooded paddy test; format: in vivo, Echinochloa crus-galli; conditions: 1000 g ai/ha, scale 0 to 100 (0 no effect, 100 complete control)
How it was run: as §3

rice [7] = assay: Test C flooded paddy test; format: in vivo, Oryza sativa
How it was run: (§5)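 Plants were grown to the 1- to 4-leaf stage (2–18 cm) and then treated postemergence, or grown to the 2-leaf stage for the flooded paddy test. They were held in a greenhouse for 12 to 14 days and then scored by eye against controls, where 0 is no effect and 100 is complete control.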

[8] = test system: smallflower umbrella sedge; assay: Test C flooded paddy test; format: in vivo, Cyperus difformis
ducksalad [9] = assay: Test C flooded paddy test; format: in vivo, Heteranthera limosa
barnyardgrass [10] = assay: Test C flooded paddy test; format: in vivo, Echinochloa crus-galli
How it was run: as §5

[11] = 125 g ai/ha, 0 = no effect, 100 = complete control, preemergence
[12] = 125 g ai/ha, visual rating, scale 0 (no effect) to 100 (complete control)
[13] = 500 g ai/ha, visual rating, 0 = no effect, 100 = complete control, preemergence
[14] = 500 g ai/ha, scale 0 to 100, 0 is no effect, 100 is complete control
[15] = 125 g ai/ha, scale 0 to 100 (0 no effect, 100 complete control)
[16] = 250 g ai/ha, scale of 0 to 100, 0 is no effect, 100 is complete control
[17] = 500 g ai/ha, visual rating after 12 to 14 days, scale 0 to 100 (0 no effect, 100 complete control)

Compound: CCN(CC)C(=O)c1ccc(F)c(NC(=O)C2CC(C(C)(C)C)=NN2CC)c1 (racemic) [Compound 308]
- Barnyardgrass plant response rating (0 to 100 scale) (barnyardgrass [1]; [11]): 20
- Barnyardgrass plant response rating (barnyardgrass [1]; [12]): 0
- Plant response rating, Barnyardgrass (barnyardgrass [1]; [13]): 80
- Barnyardgrass plant response rating (barnyardgrass [1]; [14]): 10
- Surinam Grass plant response rating (0 to 100 scale) (Surinam grass; [11]): 20
- Surinam Grass plant response rating (Surinam grass; [12]): 10
- Plant response rating, Surinam Grass (Surinam grass; [13]): 60
- Surinam Grass plant response rating (Surinam grass; [14]): 20
- Cocklebur plant response rating (0 to 100 scale) (cocklebur; [11]): 0
- Cocklebur plant response rating (cocklebur; [12]): 0
- Plant response rating, Cocklebur (cocklebur; [13]): 0
- Cocklebur plant response rating (cocklebur; [14]): 40
- Corn plant response rating (0 to 100 scale) (corn; [11]): 20
- Corn plant response rating (corn; [12]): 0
- Plant response rating, Corn (corn; [13]): 70
- Corn plant response rating (corn; [14]): 10
- Crabgrass, Large plant response rating (0 to 100 scale) (large crabgrass; [11]): 40
- Crabgrass, Large plant response rating (large crabgrass; [12]): 0
- Plant response rating, Crabgrass, Large (large crabgrass; [13]): 70
- Crabgrass, Large plant response rating (large crabgrass; [14]): 10
- Foxtail, Giant plant response rating (0 to 100 scale) (giant foxtail; [11]): 10
- Foxtail, Giant plant response rating (giant foxtail; [12]): 10
- Plant response rating, Foxtail, Giant (giant foxtail; [13]): 90
- Foxtail, Giant plant response rating (giant foxtail; [14]): 20
- Lambsquarters plant response rating (0 to 100 scale) (lambsquarters; [11]): 100
- Lambsquarters plant response rating (lambsquarters; [12]): 50
- Plant response rating, Lambsquarters (lambsquarters; [13]): 100
- Lambsquarters plant response rating (lambsquarters; [14]): 60
- Morningglory plant response rating (0 to 100 scale) (morningglory; [11]): 0
- Morningglory plant response rating (morningglory; [12]): 0
- Plant response rating, Morningglory (morningglory; [13]): 10
- Morningglory plant response rating (morningglory; [14]): 20
- Pigweed plant response rating (0 to 100 scale) (pigweed; [11]): 80
- Pigweed plant response rating (pigweed; [12]): 60
- Plant response rating, Pigweed (pigweed; [13]): 100
- Pigweed plant response rating (pigweed; [14]): 70
- Rice plant response rating (0 to 100 scale) (rice [2]; 125 g ai/ha): 20
- Plant response rating, Rice (rice [2]; 500 g ai/ha, visual rating): 50
- Velvetleaf plant response rating (velvetleaf; [12]): 10
- Plant response rating, Velvetleaf (velvetleaf; [13]): 100
- Velvetleaf plant response rating (velvetleaf; [14]): 20
- Blackgrass plant response rating (blackgrass; [12]): 10
- Blackgrass plant response rating (blackgrass; [14]): 30
- Wheat plant response rating (wheat; [12]): 10
- Wheat plant response rating (wheat; [14]): 20
- Oat, Wild plant response rating (wild oat; [12]): 10
- Oat, Wild plant response rating (wild oat; [14]): 20
- Rice plant response rating (rice [3]): 70
- Sedge, Umbrella plant response rating [4]: 90
- Ducksalad plant response rating (ducksalad [5]): 90
- Barnyardgrass plant response rating (barnyardgrass [6]): 90
- Rice plant response rating (rice [7]; 62 g ai/ha, scale 0 to 100): 15
- Rice plant response rating (rice [7]; [15]): 25
- Rice plant response rating (rice [7]; [16]): 65
- Plant response rating, Rice (rice [7]; [17]): 70
- Sedge, Umbrella plant response rating ([8]; 62 g ai/ha, scale 0 to 100): 0
- Sedge, Umbrella plant response rating [8, 15]: 25
- Sedge, Umbrella plant response rating [8, 16]: 70
- Plant response rating, Sedge, Umbrella [8, 17]: 80
- Ducksalad plant response rating (ducksalad [9]; 62 g ai/ha, scale 0 to 100): 0
- Ducksalad plant response rating (ducksalad [9]; [15]): 0
- Ducksalad plant response rating (ducksalad [9]; [16]): 15
- Plant response rating, Ducksalad (ducksalad [9]; [17]): 75
- Barnyardgrass plant response rating (barnyardgrass [10]; 62 g ai/ha, scale 0 to 100 (0 no effect, 100 complete control)): 0
- Barnyardgrass plant response rating (barnyardgrass [10]; [15]): 0
- Barnyardgrass plant response rating (barnyardgrass [10]; [16]): 25
- Plant response rating, Barnyardgrass (barnyardgrass [10]; [17]): 65

Reference: patent US20060069132A1, “Azolecarboxamide herbicides” (priority 2004, published 2006)
